Results as given in ChEMBL document CHEMBL1156187, “Discovery of a selective small-molecule melanocortin-4 receptor agonist with efficacy in a pilot study of sexual dysfunction in humans” (J Med Chem, 2010).
Active and inactive are the calls of the source. The rule behind the calls is not given here.

How the values were obtained:
Melanocortin receptor 4 [1] = molecular target: T1, Melanocortin receptor 4 (Homo sapiens, UniProt P32245); assay: Displacement of [125I]-MT-II from human recombinant MC4 receptor expressed in CHO cells by scintillation counting
[2] = Lipophilicity, log D at pH 7.4; format: physicochemical; settings: buffer
[3] = Tmax in dog at 2.04 mg/kg, sublingual; format: ADME, organism-based, Canis lupus familiaris; parameters: dose 2.04 mg/kg; settings: in vivo
[4] = Tmax in dog at 0.14 mg/kg, intranasal; format: ADME, organism-based, Canis lupus familiaris; parameters: dose 0.14 mg/kg; settings: in vivo, inhaled or intranasal
[5] = Cmax in dog at 2.04 mg/kg, sublingual; format: ADME, organism-based, Canis lupus familiaris; parameters: dose 2.04 mg/kg, route sublingual; settings: in vivo
[6] = Tmax in dog at 0.14 mg/kg, sublingual; format: ADME, organism-based, Canis lupus familiaris; parameters: dose 0.14 mg/kg; settings: in vivo
[7] = Cmax in dog at 0.5 mg/kg, po; format: ADME, organism-based, Canis lupus familiaris; parameters: dose 0.5 mg/kg, route oral; settings: in vivo
[8] = Fraction unbound in dog plasma; format: ADME, cell-free, Canis lupus familiaris
[9] = AUC (0 to infinity) in dog at 0.14 mg/kg, sublingual; format: ADME, organism-based, Canis lupus familiaris; parameters: time infinity, route sublingual, dose 0.14 mg/kg; settings: plasma
[10] = Cmax in dog at 0.14 mg/kg, sublingual; format: ADME, organism-based, Canis lupus familiaris; parameters: route sublingual, dose 0.14 mg/kg; settings: in vivo
[11] = Clearance in rat at 1 mg/kg, iv; format: ADME, organism-based; parameters: dose 1 mg/kg, route intravenous; settings: in vivo
Homo sapiens [12] = assay: Reversal of erectile dysfunction in human assessed as visual sexual stimulation at 200 mg, po after 2 hrs post dose; format: functional, organism-based
[13] = Apparent Permeability from apical to basolateral side of MDCK2 cells over expressing MDR1; format: ADME, cell-based, Canis lupus familiaris; settings: dog, MDCK-MDR1; read-out: permeability
[14] = Tmax in dog at 0.5 mg/kg, po; format: ADME, organism-based, Canis lupus familiaris; parameters: dose 0.5 mg/kg, route oral; settings: in vivo
[15] = Terminal half life in human at 195 mg, po; format: ADME, organism-based; settings: in vivo, read-out: beta t1/2 (converted)
[16] = Half life in dog at 0.67 mg/kg, sublingual; format: ADME, organism-based, Canis lupus familiaris; parameters: dose 0.67 mg/kg; settings: in vivo
Melanocortin receptor 4 [17] = molecular target: T1, Melanocortin receptor 4; assay: Agonist activity at human recombinant MC4 receptor expressed in CHO cells by cAMP responsive beta lactamase reporter gene assay; format: functional, cell-based
[18] = Clearance in dog plasma at 0.5 mg/kg, iv; format: ADME, organism-based, Canis lupus familiaris; parameters: dose 0.5 mg/kg, route intravenous
[19] = molecular target: T2, Melanocyte-stimulating hormone receptor (Homo sapiens, UniProt Q01726); assay: Agonist activity at human recombinant MC1 receptor expressed in HEK293 cells assessed as cAMP accumulation by enzyme fragment complementation assay relative to alpha melanocyte-stimulating hormone; format: functional, cell-based
Target sequence in this assay (Q01726 whole entry, looked up, the tested form may be a part): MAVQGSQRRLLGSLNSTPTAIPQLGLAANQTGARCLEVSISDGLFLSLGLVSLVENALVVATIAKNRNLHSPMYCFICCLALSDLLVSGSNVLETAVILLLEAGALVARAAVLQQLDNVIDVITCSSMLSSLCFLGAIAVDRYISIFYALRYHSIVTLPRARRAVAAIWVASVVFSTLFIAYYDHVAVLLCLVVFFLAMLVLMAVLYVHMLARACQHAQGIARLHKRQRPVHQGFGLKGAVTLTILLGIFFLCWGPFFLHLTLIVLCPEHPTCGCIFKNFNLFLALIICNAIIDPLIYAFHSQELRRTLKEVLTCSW

Homo sapiens [20] = species: Homo sapiens; assay: Toxicity in human assessed as minimum effective dose; format: organism-based; settings: in vivo
[21] = (§1) Oral bioavailability in dog at 0.5 mg/kg; format: ADME, organism-based, Canis lupus familiaris; settings: in vivo
[22] = Binding affinity to sodium channel
[23] = AUC (0 to infinity) in dog at 0.5 mg/kg, po; format: ADME, organism-based, Canis lupus familiaris; parameters: time infinity, dose 0.5 mg/kg, route oral; settings: plasma
[24] = Bioavailability in dog at 0.67 mg/kg, sublingual; format: ADME, organism-based, Canis lupus familiaris; settings: in vivo
[25] = AUC (0 to infinity) in dog at 2.04 mg/kg, sublingual; format: ADME, organism-based, Canis lupus familiaris; parameters: time infinity, dose 2.04 mg/kg, route sublingual; settings: plasma
[26] = Cmax in dog at 0.14 mg/kg, intranasal; format: ADME, organism-based, Canis lupus familiaris; parameters: route nasal, dose 0.14 mg/kg; settings: in vivo, inhaled or intranasal
Liver microsomes = assay: Intrinsic clearance in rat liver microsome measured per mg of protein; format: ADME
[27] = Half life in dog at 0.5 mg/kg, po; format: ADME, organism-based, Canis lupus familiaris; parameters: dose 0.5 mg/kg, route oral; settings: in vivo
Homo sapiens [28] = assay: Reversal of erectile dysfunction in human assessed as non-visual sexual stimulation at 200 mg, po dosed twice with the interval of 7 days after 2 hrs post dose; format: functional, organism-based
[29] = Peak plasma concentration in rat at 195 mg, sublingual; format: ADME, organism-based
[30] = Apparent Permeability from basolateral to apical side of MDCK2 cells over expressing MDR1; format: ADME, cell-based, Canis lupus familiaris; settings: dog, MDCK-MDR1; read-out: permeability
[31] = Volume of distribution at steady state in dog plasma at 0.5 mg/kg, iv; format: ADME, organism-based, Canis lupus familiaris; parameters: dose 0.5 mg/kg, route intravenous; settings: read-out: Vdss
[32] = Drug excretion in iv dosed rat urine; format: ADME, organism-based; settings: read-out: Drug uptake
[33] = Drug excretion in rat urine assessed as parent compound level at 195 mg; format: ADME; settings: read-out: Drug uptake
[34] = Association constant, pKa of the compound; format: physicochemical
[35] = Half life in dog at 0.5 mg/kg, iv; format: ADME, organism-based, Canis lupus familiaris; parameters: dose 0.5 mg/kg, route intravenous; settings: in vivo
[36] = Binding affinity to sigma opioid receptor
[37] = Intrinsic clearance in human liver microsome measured per mg of protein; format: ADME; settings: liver microsomes
[38] = Tmax in dog at 0.67 mg/kg, sublingual; format: ADME, organism-based, Canis lupus familiaris; parameters: dose 0.67 mg/kg; settings: in vivo
[39] = Oral bioavailability in rat at 1 mg/kg; format: ADME, organism-based; settings: in vivo
Melanocortin receptor 5 [40] = molecular target: T3, Melanocortin receptor 5 (Homo sapiens, UniProt P33032); assay: Agonist activity at human recombinant MC5 receptor expressed in HEK293 cells assessed as cAMP accumulation by beta lactamase reporter gene assay relative to alpha melanocyte-stimulating hormone; format: functional, cell-based
[41] = Cmax in dog at 0.67 mg/kg, sublingual; format: ADME, organism-based, Canis lupus familiaris; parameters: dose 0.67 mg/kg, route sublingual; settings: in vivo
[42] = Intrinsic clearance in dog liver microsome measured per mg of protein; format: ADME, Canis lupus familiaris; settings: microsomes
Melanocortin receptor 3 [43] = molecular target: T4, Melanocortin receptor 3 (Homo sapiens, UniProt P41968); assay: Agonist activity at human recombinant MC3 receptor expressed in CHO cells assessed as cAMP accumulation by enzyme fragment complementation assay relative to […]; format: functional, cell-based
[44] = AUC (0 to infinity) in dog at 0.14 mg/kg, intranasal; format: ADME, organism-based, Canis lupus familiaris; parameters: route nasal, time infinity, dose 0.14 mg/kg; settings: plasma, inhaled or intranasal
[45] = Half life in dog at 0.14 mg/kg, intranasal; format: ADME, organism-based, Canis lupus familiaris; parameters: dose 0.14 mg/kg; settings: in vivo, inhaled or intranasal
[46] = Peak plasma concentration in rat at 195 mg, po; format: ADME, organism-based
[47] = Half life in dog at 2.04 mg/kg, sublingual; format: ADME, organism-based, Canis lupus familiaris; parameters: dose 2.04 mg/kg; settings: in vivo
[48] = AUC (0 to infinity) in dog at 0.67 mg/kg, sublingual; format: ADME, organism-based, Canis lupus familiaris; parameters: route sublingual, dose 0.67 mg/kg, time infinity; settings: plasma
[49] = Fraction unbound in rat plasma; format: ADME, cell-free
Melanocortin receptor 3 [50] = molecular target: T4, Melanocortin receptor 3; assay: Agonist activity at human recombinant MC3 receptor expressed in CHO cells assessed as cAMP accumulation by enzyme fragment complementation assay; format: functional, cell-based
Homo sapiens [51] = assay: Reversal of erectile dysfunction in human assessed as non-visual sexual stimulation at 200 mg, po after 2 hrs post dose; format: functional, organism-based
[52] = Drug excretion in iv dosed rat bile; format: ADME, organism-based; settings: read-out: Drug uptake
Homo sapiens [53] = assay: Reversal of erectile dysfunction in human assessed as visual sexual stimulation at 200 mg, po dosed twice with the interval of 7 days measuerd after 2 hrs post-dose on day 7; format: functional, organism-based
[54] = Bioavailability in dog at 0.14 mg/kg, sublingual; format: ADME, organism-based, Canis lupus familiaris; settings: in vivo
[55] = Half life in rat at 1 mg/kg, iv; format: ADME, organism-based; parameters: dose 1 mg/kg, route intravenous; settings: in vivo
[56] = Bioavailability in dog at 0.14 mg/kg, intranasal; format: ADME, organism-based, Canis lupus familiaris; settings: in vivo, inhaled or intranasal
Melanocortin receptor 5 [57] = molecular target: T3, Melanocortin receptor 5; assay: Agonist activity at human recombinant MC5 receptor expressed in HEK293 cells assessed as cAMP accumulation by beta lactamase reporter gene assay; format: functional, cell-based
[58] = Bioavailability in dog at 2.04 mg/kg, sublingual; format: ADME, organism-based, Canis lupus familiaris; settings: in vivo
[59] = molecular target: T2, Melanocyte-stimulating hormone receptor; assay: Agonist activity at human recombinant MC1 receptor expressed in HEK293 cells assessed as cAMP accumulation by enzyme fragment complementation assay; format: functional, cell-based
Target sequence in this assay (Q01726 whole entry, the tested form may be a part): as the sequence (Q01726 whole entry, looked up, the tested form may be a part) above

[60] = as §1; format: ADME, organism-based, Canis lupus familiaris; settings: in vivo; remark: listed apart in the source
[61] = Half life in dog at 0.14 mg/kg, sublingual; format: ADME, organism-based, Canis lupus familiaris; parameters: dose 0.14 mg/kg; settings: in vivo
[62] = Volume of distribution at steady state in rat at 1 mg/kg, iv; format: ADME, organism-based; parameters: dose 1 mg/kg, route intravenous; settings: in vivo, read-out: Vdss

T3 sequence (P33032 whole entry): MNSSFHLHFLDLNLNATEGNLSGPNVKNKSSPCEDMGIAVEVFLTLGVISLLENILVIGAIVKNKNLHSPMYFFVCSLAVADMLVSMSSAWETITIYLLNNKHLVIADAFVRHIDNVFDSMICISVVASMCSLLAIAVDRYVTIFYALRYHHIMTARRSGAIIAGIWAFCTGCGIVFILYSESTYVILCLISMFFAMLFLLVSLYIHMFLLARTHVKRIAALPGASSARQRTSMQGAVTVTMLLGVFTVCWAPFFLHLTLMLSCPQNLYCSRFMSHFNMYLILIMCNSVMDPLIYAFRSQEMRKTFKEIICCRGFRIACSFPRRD
T1 sequence (P32245 whole entry): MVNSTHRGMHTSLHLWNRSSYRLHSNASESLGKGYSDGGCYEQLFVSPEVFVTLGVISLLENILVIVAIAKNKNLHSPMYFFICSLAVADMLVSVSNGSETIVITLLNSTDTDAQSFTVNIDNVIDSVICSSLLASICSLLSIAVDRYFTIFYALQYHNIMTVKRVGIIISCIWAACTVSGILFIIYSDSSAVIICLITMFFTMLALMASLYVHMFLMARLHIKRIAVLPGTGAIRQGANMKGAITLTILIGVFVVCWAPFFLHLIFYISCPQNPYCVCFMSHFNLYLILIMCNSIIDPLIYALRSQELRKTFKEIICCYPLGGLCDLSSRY
T4 sequence (P41968 whole entry, the tested form may be a part): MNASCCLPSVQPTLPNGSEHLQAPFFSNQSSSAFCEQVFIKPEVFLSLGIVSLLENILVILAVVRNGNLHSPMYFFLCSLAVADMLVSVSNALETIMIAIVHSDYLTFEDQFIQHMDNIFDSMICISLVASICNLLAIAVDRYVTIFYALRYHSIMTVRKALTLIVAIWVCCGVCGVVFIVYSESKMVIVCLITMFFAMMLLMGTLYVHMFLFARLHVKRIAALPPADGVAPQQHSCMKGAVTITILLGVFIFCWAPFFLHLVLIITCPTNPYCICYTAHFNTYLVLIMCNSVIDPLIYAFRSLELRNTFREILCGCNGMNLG

Structure (SMILES): C[C@@H]1CN(C(=O)[C@@H]2CN(C(C)(C)C)C[C@H]2c2ccc(F)cc2F)C[C@H](C)[C@@]1(O)c1ccccc1.Cl
- Ki (Melanocortin receptor 4 [1]): 0.027 µM
- logD [2]: 2.8
- Tmax [3]: 0.3 h
- Tmax [4]: 1.6 h
- Cmax [5]: 41 ng/mL
- Tmax [6]: 0.7 h
- Cmax [7]: 0.9 ng/mL
- fraction unbound [8]: 0.15
- AUC(0-inf) [9]: 17 ng·h/mL
- Cmax [10]: 2.6 ng/mL
- clearance [11]: 89 mL/min/kg
- Activity (Homo sapiens [12]): Active
- Papp A→B [13]: 41 ×10⁻⁶ cm/s
- Tmax [14]: 1 h
- half-life [15]: 12 h
- half-life [16]: 3.6 h
- EC50 (Melanocortin receptor 4 [17]): 0.012 µM
- clearance [18]: 46 mL/min/kg
- Emax [19]: 103%
- Activity (Homo sapiens [20]): Toxic
- bioavailability [21]: 1%
- Ki [22]: 0.69 µM
- AUC(0-inf) [23]: 1.8 ng·h/mL
- bioavailability [24]: 26%
- AUC(0-inf) [25]: 146 ng·h/mL
- Cmax [26]: 2.6 ng/mL
- clearance (Liver microsomes): 60 µL/min/mg
- half-life [27]: 1.9 h
- Activity (Homo sapiens [28]): Active
- Cmax [29]: 31 ng/mL
- Papp B→A [30]: 18 ×10⁻⁶ cm/s
- Vd [31]: 17 L/kg
- dose excreted [32]: < 3%
- dose excreted [33]: < 2.5%
- pKa [34]: 8.95
- half-life [35]: 4.2 h
- Ki [36]: 0.33 µM
- microsomal CLint [37]: 45 µL/min/mg
- Tmax [38]: 0.3 h
- bioavailability [39]: 20%
- Emax (Melanocortin receptor 5 [40]): 100%
- Cmax [41]: 15 ng/mL
- clearance [42]: 242 µL/min/mg
- Emax (Melanocortin receptor 3 [43]): 99%
- AUC(0-inf) [44]: 12 ng·h/mL
- half-life [45]: 3.3 h
- Cmax [46]: 30 ng/mL
- half-life [47]: 4 h
- AUC(0-inf) [48]: 64 ng·h/mL
- fraction unbound [49]: 0.07
- EC50 (Melanocortin receptor 3 [50]): 1.16 µM
- Activity (Homo sapiens [51]): Active
- dose excreted [52]: < 1%
- Activity (Homo sapiens [53]): Active
- bioavailability [54]: 35%
- half-life [55]: 2.4 h
- bioavailability [56]: 24%
- EC50 (Melanocortin receptor 5 [57]): 1.98 µM
- bioavailability [58]: 20%
- EC50 [59]: 1.02 µM
- bioavailability [60]: 1%
- half-life [61]: 3.7 h
- Vd [62]: 19 L/kg
